Experimental data reported in US20250268920A1, “USE OF ANDROGEN RECEPTOR-MEDIATED MECHANISMS IN THE TREATMENT OF ACUTE MYELOID LEUKEMIA” (The Penn State Research Foundation, priority 2022, published 2025).
Like-named read-outs stand apart in the source and are kept apart here.

How the values were obtained:
P70 S6K = experiment: In vitro treatment of female AML cells: phosphorylation of downstream target P70 S6K; type: cell-based, mouse; details: isolated female AML cells treated in vitro (FIG. 4A)
Text: (§1) To obtain the results shown in FIG. 1, we isolated bone marrow cells from CD45.1 male mice (FIG. 1A) and CD45.1 female mice (FIG. 1B). Bone marrow cells were applied to hematopoietic stem/progenitor cell isolation using a kit (EasySep™ mouse hematopoietic progenitor cell isolation kit, […], Catalog #19856) followed by red blood cell lysis. Lineage negative (Lin^−) cells were stained with fluorescent antibodies including Sca-1 and c-Kit and then sent to a Beckman Coulter MoFlo Astrios EQ Cell Sorter for sorting Sca-1^+c-Kit^+ cells. These cells were cultured in a CO2 incubator at 37° C. in the presence of MLL-AF9 virus (for AML) for six hours and then injected retro-orbitally into CD45.2 recipient mice. Recipients received sublethal irradiation (475 rads) and 1.5˜3.5×10^5 Lin^−Sca-1^+c-Kit^+ hematopoietic stem cells (HSCs). Mice were monitored for complete cell counts by bleeding retro-orbitally one month post transplantation. Retro-orbital bleeding was performed weekly.
(§2) To obtain the results, isolated female AML cells were treated in vitro with PI3K inhibitors (LY294002 and Wortmannin), Akt inhibitor, MTOR inhibitors (Sapanisertib and Torin1).

female AML cells = experiment: In vitro apoptosis of female AML cells (Annexin V staining); type: cell-based, mouse; details: Annexin V staining (FIG. 4B, 4C)
Text: as §1, §2

male AML donor cells = experiment: In vivo finasteride treatment of male mice transplanted with male AML donor cells; details: for Survival: male AML donors (FIG. 10J)
Text: as §1
(FIG. 10A) Upon 2° transplantation of male AML donors to male recipients, the recipient mice were treated with vehicle (PBS) or finasteride (50 mg/kg/d, i.p. injection) for one week. Then at three weeks post transplantation, mice were euthanized. […] Moreover, to observe the therapeutic effect of finasteride, we treated male recipients transplanted with male AML donors (mirroring the clinical patients) with in vivo finasteride for two weeks or extended it to four weeks (FIG. 10I). […] Thus, the disclosure includes adjusting the treatment period for male (and female) AML patients.

female AML donor cells [1] = experiment: In vivo finasteride treatment of female mice transplanted with female AML donor cells
Description: To mirror the patient scenario, we performed the experiment on female recipients transplanted with female AML donor cells.
(FIG. 12A) At one week after 2° transplantation of female AML donors to female recipients, we treated the mice with vehicle (PBS) or finasteride (20 mg/kg/d, i.p. injection) for two weeks.

female AML donor cells [2] = experiment: In vivo ARN509 alone or combined with finasteride in male mice transplanted with female AML donor cells; details: single ARN509 10 mg/kg/d i.p. for two weeks; male recipients
Description: (FIG. 11A) At one week post 2° transplantation of female AML donors into male recipients, the mice were treated with vehicle (PBS), ARN509 (10 mg/kg/d, i.p. injection), or combination of ARN509 (10 mg/kg/d, i.p. injection) and finasteride (20 mg/kg/d, i.p. injection), for two weeks.

female AML donor cells [3] = type: in vivo, mice
Text: as §1
To address if ARN509 therapy preferentially benefitted AML in female mice, we performed an experiment in which male recipient mice transplanted with female AML donors cells were treated with AR antagonist, ARN509.
(FIG. 8A) Following one week post 2° transplantation of AML cells from female donors into male recipients, we treated the mice with ARN509 (0, 10, 25 mg/kg/d, i.p. injection) for two weeks.

female AML donor cells [4] = type: in vivo, mice; remark: listed apart in the source
Text: as §1
To test the effect of AR inhibition on the outcome of AML, we utilized the AR antagonist, ARN509, to treat female mice transplanted with female AML donor cells. (FIG. 7A) Following one week post-secondary) (2° transplantation of AML cells from female donors into female recipients, the recipient mice were treated with ARN509 (0, 10, 25 mg/kg/d, i.p. injection) daily for two weeks.

female AML donor cells [5] = experiment: Survival of female recipients transplanted with female AML donors treated in vitro with ARN509; type: in vivo, mice; details: female AML donors treated in vitro with ARN509 150 nM, 24 h, transplanted into female recipients (FIG. 7J)
female AML donor cells [6] = experiment: Survival of male recipients transplanted with female AML donors treated in vitro with ARN509; type: in vivo, mice; details: female AML donors treated in vitro with ARN509 150 nM, 24 h, transplanted into male recipients (FIG. 8J)
[7] = finasteride 50 mg/kg/d i.p. for one week, male recipients
[8] = finasteride 20 mg/kg/d i.p. for two weeks, female recipients

Question: How did the “Phosphorylation of the downstream target P70 S6K” value (P70 S6K) turn out when `CCC(=O)N1CCN(c2ccc(-n3c(=O)ccc4cnc5ccc(-c6cnc7ccccc7c6)cc5c43)cc2C(F)(F)F)CC1` [Torin1] was run?
Answer: down-regulated

Question: And the “Apoptosis of female AML cells” value (female AML cells)?
Answer: induced apoptosis of female AML cells significantly

Question: How did the “Generation of DHT” value (male AML donor cells; finasteride 50 mg/kg/d i.p. for one week, euthanized three weeks post transplantation (FIG. 10B)) turn out when `CC(C)(C)NC(=O)[C@H]1CC[C@H]2[C@@H]3CC[C@H]4NC(=O)C=C[C@]4(C)[C@H]3CC[C@]12C` [finasteride, Finasteride] was run?
Answer: decreased generation of DHT

Question: What about the “LICs in the bone marrow” value (male AML donor cells; [7]) of the same compound?
Answer: decreased

Question: And the “LICs in the spleen” value (male AML donor cells; [7])?
Answer: decreased

Question: What about the “Lin− leukemic cells in the bone marrow” value (male AML donor cells; [7]) of the same compound?
Answer: decreased

Question: And the “Lin− leukemic cells in the spleen” value (male AML donor cells; [7])?
Answer: decreased

Question: And the Leukocytosis (male AML donor cells; finasteride 50 mg/kg/d i.p. for one week, male recipients (FIG. 10C))?
Answer: significantly improved

Question: What about the Splenomegaly (male AML donor cells; finasteride 50 mg/kg/d i.p. for one week, male recipients (FIG. 10D)) of the same compound?
Answer: significantly improved

Question: What about the Survival (male AML donor cells; four-week in vivo finasteride treatment, male recipients) of the same compound?
Answer: significantly improved the survival

Question: And the Survival (male AML donor cells; two-week in vivo finasteride treatment, male recipients)?
Answer: partially benefited the survival

Question: What about the Leukocytosis (female AML donor cells [1]; finasteride 20 mg/kg/d i.p. for two weeks from one week after transplantation, female recipients (FIG. 12B)) of the same compound?
Answer: significantly improve

Question: What about the “LICs in the bone marrow” value (female AML donor cells [1]; [8]) of the same compound?
Answer: decreased

Question: What about the “LICs in the spleen” value (female AML donor cells [1]; [8]) of the same compound?
Answer: decreased

Question: And the “Lin− leukemic cells in the bone marrow” value (female AML donor cells [1]; [8])?
Answer: decreased

Question: And the “Lin− leukemic cells in the spleen” value (female AML donor cells [1]; [8])?
Answer: decreased

Question: And the Splenomegaly (female AML donor cells [1]; finasteride 20 mg/kg/d i.p. for two weeks, female recipients (FIG. 12C))?
Answer: significantly improve

Question: And the Survival (female AML donor cells [1]; in vivo finasteride treatment, female recipients, female AML donors (FIG. 12K))?
Answer: benefitted the survival

Question: What does the source list for `CNC(=O)c1ccc(N2C(=S)N(c3cnc(C#N)c(C(F)(F)F)c3)C(=O)C23CCC3)cc1F` [ARN509, Apalutamide]?
Answer: Anti-leukemic effect (female AML donor cells [2]): not able to induce significant anti-leukemic effect; Lin− leukemic cells in the bone marrow (female AML donor cells [3]; 25 mg/kg/d ARN509, male recipients (FIG. 8D)): decreased significantly; Lin− leukemic cells in the spleen (female AML donor cells [3]; 25 mg/kg/d ARN509, male recipients (FIG. 8E)): decreased significantly; LICs (leukemia-initiating cells) (female AML donor cells [3]; 25 mg/kg/d ARN509, male recipients (FIG. 8F, 8G)): decreased significantly; Severity of AML (female AML donor cells [3]; ARN509 0, 10, 25 mg/kg/d i.p. for two weeks from one week post transplantation, male recipients): decreased the severity of AML in a dose-dependent manner; Leukocytosis (female AML donor cells [3]; ARN509 0, 10, 25 mg/kg/d i.p., two weeks, male recipients (FIG. 8B)): improved leukocytosis; Splenomegaly (female AML donor cells [3]; ARN509 0, 10, 25 mg/kg/d i.p., two weeks, male recipients (FIG. 8C)): improved; Body weight (female AML donor cells [3]; mouse, in vivo): unchanged; Platelets in the peripheral blood (female AML donor cells [3]; mouse, in vivo): increase; Side effects (female AML donor cells [3]; mouse, in vivo): no apparent side effects; Lin− leukemic cells in the bone marrow (female AML donor cells [4]; 25 mg/kg/d ARN509, female recipients (FIG. 7D)): decreased significantly; Lin− leukemic cells in the spleen (female AML donor cells [4]; 25 mg/kg/d ARN509, female recipients (FIG. 7E)): decreased significantly; LICs (leukemia-initiating cells) (female AML donor cells [4]; 25 mg/kg/d ARN509, female recipients (FIG. 7F, 7G)): decreased significantly; Severity of AML (female AML donor cells [4]; ARN509 0, 10, 25 mg/kg/d i.p. daily for two weeks from one week post transplantation, female recipients): decreased the severity of AML in a dose-dependent manner; Leukocytosis (female AML donor cells [4]; ARN509 0, 10, 25 mg/kg/d i.p., two weeks, female recipients (FIG. 7B)): improved leukocytosis; Splenomegaly (female AML donor cells [4]; ARN509 0, 10, 25 mg/kg/d i.p., two weeks, female recipients (FIG. 7C)): improved; Platelets in the peripheral blood (female AML donor cells [4]; mouse, in vivo): increase; Side effects (female AML donor cells [4]; mouse, in vivo): no apparent side effects; Survival (female AML donor cells [5]): significantly better survival; Apoptosis of female AML cells (female AML cells): led to apoptosis of female AML cells; Survival (female AML donor cells [6]): some improvement of survival
